Reference: patent publication US4105659A, “1,2,3,4,5,6-Hexahydro-2,6-methano-3-benzazocines” (Sterling Drug Inc., priority 1964, dated 1978)
Values after ≈ are worked out from the molar mass of the structure shown.

Columns and labels:
[1] = Solubility, pH of solution and precipitation on pH adjustment or dilution; type: physicochemical
Description: A. A mixture of 8.7 g. of racemic cis 1,2,3,4,5,6-hexahydro-6,11-dimethyl-8-hydroxy-2,6-methano-3-benzazocine (which is also known as racemic cis 2'-hydroxy-5,9-dimethyl-6,7-benzomorphan), 6.0 g of 1-bromo-3-methyl-2-butene, 5.0 g. of sodium bicarbonate, and 125 ml. of N,N-dimethylformamide was stirred and refluxed for approximately 41/2 hours. The reaction mixture was then filtered, and the solid on the filter was washed with ethanol. The filtrate and the wash liquor were combined, concentrated under reduced pressure, and then extracted with chloroform. The chloroform extract was concentrated under reduced pressure to yield a syrup which weighed 15.8 g. This syrup was dissolved in 120 ml. of diethyl ether and the resulting solution was filtered to remove approximately one-half gram of a brown amorphous solid. The filtrate was extracted with a mixture of 5 ml. of concentrated hydrochloric acid and 20 ml. of water. To the extract there was added 5 ml. of concentrated ammonium hydroxide solution and ice. A pale tan syrup separated from solution and after stirring, this syrup solidified. The resulting pale tan solid was collected and dried; it weighed 10.6 g. After two recrystallizations from a mixture of methyl alcohol and water, with charcoaling, this solid weighed 8.2 g. and melted at 145°-147° C. The product thus obtained was racemic cis 1,2,3,4,5,6-hexahydro-3-(3-methyl-2-butenyl)-6,11-dimethyl-8-hydroxy-2,6-methano-3-benzazocine (Formula II: Y = --CH2 --CH=C(CH3)2; R^3 = --H), having the molecular formula C19 H27 NO. This product was soluble in a mixture of 0.35 ml. of N/2 hydrochloric acid and 0.15 ml. of water to the extent of 10 percent, the pH of the 1 percent solution being 2.80; and when the pH of the 1 percent solution was gradually raised by addition of N/10 sodium hydroxide solution, a precipitate formed at pH 5.4. When the base was converted to the hydrochloride and was then regenerated from this salt it melted at 151°-153° C. The hydrochloride of this base melted at 245°-247° C. (dec.). and the cyclohexylsulfamate of this base melted at 163°-166° C. The base formed a grayish-yellowtannate.
The racemic trans product was converted to its hydrobromide, having the molecular formula C19 H27 NO·HBr, which was obtained as white needles which melted at 240°-241° C.
The dextro trans product was converted to its hydrochloride, having the molecular formula C19 H27 NO·HCl, which was obtained as white crystals which melted at 254°-255° C.
The levo trans product was converted to its hydrochloride, having the molecular formula C19 H27 NO·HCl, which was obtained as white crystals which melted at 254°-255° C. (dec.); this hydrochloride was soluble in water to the extent of 5 percent, the pH of a 1 percent aqueous solution being 5.7, a precipitate being formed when the 1 percent aqueous solution was adjusted to 7.0 by addition of N/10 sodium hydroxide solution.
A. A mixture of 9.25 g. of racemic cis 1,2,3,4,5,6-hexahydro-6-ethyl-11-methyl-8-hydroxy-2,6-methano-3-benzazocine, 6.0 g. of 1-bromo-3-methyl-2-butene, 125 ml. of N,N-dimethylformamide, and 5.0 g. of sodium bicarbonate was stirred and refluxed for approximately 41/2 hours. The reaction mixture was then filtered, and the solid collected on the filter was washed with ethanol. The filtrate and the wash liquor were combined and concentrated under reduced pressure. To the resulting residue there was added 50 ml. of diethyl ether, and the mixture was filtered. Approximately 0.6 g. of solid was collected on the filter, and 8.2 g. of brown solid separated from the filtrate and was collected by filtration. These two crops of solid (8.8 g.) were combined, 25 ml. of methanol was added, and the mixture was boiled. Only a small portion of the solid dissolved. This mixture was mixed with 25 ml. of water and chilled. The mixture was filtered to collect 8.3 g. of pale tan solid which melted at 156°-158° C. […]

[2] = tested on: analgesic effect of meperidine hydrochloride; experiment: Antagonism of meperidine analgesia, modified D'Amour-Smith test; details: for maximum degree of antagonism: versus 60 mg/kg. meperidine
[3] = Clinical analgesia in human subjects; type: in vivo
Description: In human subjects, however, the compounds of Formulas I and II are valuable and effective agents for producing analgesia when administered in the general range of about 10 to 500 mg. per 70 kg. of subject weight, the dosage depending of course on the particular compound, the mode of administration, and the like. The following clinical results which were obtained in human subjects are illustrative. For oral administration the free base was used, and for parenteral (usually intramuscular) administration an aqueous solution of the lactate salt was used; the dosages are expressed in each instance in terms of milligrams of base per 70 kilograms of body weight of the human subject.

[4] = Support of morphine addiction in stabilized morphine addicts
[5] = tested on: analgesic effect of morphine sulfate; experiment: Antagonism of morphine analgesia, modified D'Amour-Smith test; details: Rattus norvegicus, sc, read-out: dosage of antagonist which reduced the analgesic effect of morphine by approximately 50 per cent
[6] = D'Amour-Smith test for analgesia in rats; type: in vivo
Description: In tests as in animals as analgesics and as antagonists of strong analgesics, the racemic, dextro, and levo forms of trans 1,2,3,4,5,6-hexahydro-3-(3-methyl-2-butenyl)-6-ethyl-11-methyl-8-hydroxy-2,6-methano-3-benzazocine described in Example 7D above gave results substantially differing from those of the corresponding cis forms and of the related compounds of this invention. Thus, in the analgesic antagonist test versus a 60 mg/kg. dose of meperidine, the maximum degree of antagonism which could be obtained for these three trans forms was: for the racemic trans form, 50 percent antagonism at 0.1 mg/kg.; for the dextro trans form, 30 percent antagonism at 1.25 mg./kg.; and for the levo trans form, 22 percent antagonism at 0.1 mg./kg.

CC(C)=CCN1CC[C@@]2(C)c3cc(O)ccc3C[C@@H]1[C@@H]2C (relative stereo) [4A (base), racemic cis 1,2,3,4,5,6-hexahydro-3-(3-methyl-2-butenyl)-6,11-dimethyl-8-hydroxy-2,6-methano-3-benzazocine]
pH of the 1 percent solution ([1]; 1 percent solution in dilute hydrochloric acid): 2.80
pH at which a precipitate formed ([1]; 1 percent solution, addition of N/10 sodium hydroxide): 5.4
solubility ([1]; dilute hydrochloric acid, mixture of 0.35 ml. of N/2 hydrochloric acid and 0.15 ml. of water, read-out: solubility in dilute hydrochloric acid): 100 mg/mL (≈ 350 mM)
ED50 ([2]; Rattus norvegicus, sc, read-out: dosage of antagonist which reduced the analgesic effect of meperidine by approximately 50 per cent): 3.9 mg/kg
analgesia in human subjects ([3]; orally, 50mg./70 kg. and 100 mg./70 kg.): effective and satisfactory analgesia
dose approximately equivalent to 10 mg. of morphine sulfate as an analgesic ([3]; parenterally in humans): ~20 mg
analgesia in human subjects ([3]; parenterally, 10 mg./70 kg. and 60 mg./70 kg.): effective and satisfactory analgesia
support of morphine addiction [4]: did not support morphine addiction
ED50 [5]: 9 mg/kg

CC[C@]12CCN(CC=C(C)C)[C@@H](Cc3ccc(O)cc31)C2C (relative stereo) [7D (dextro trans), trans 1,2,3,4,5,6-hexahydro-3-(3-methyl-2-butenyl)-6-ethyl-11-methyl-8-hydroxy-2,6-methano-3-benzazocine]
maximum degree of antagonism ([2]; at 1.25 mg./kg.): 30%
analgesic activity in D'Amour-Smith test ([6]; at 30 mg./kg.): inactive
toxicity in D'Amour-Smith test ([6]; at 60 mg./kg.): toxic

CC[C@]12CCN(CC=C(C)C)[C@@H](Cc3ccc(O)cc31)C2C (relative stereo) [7D (levo trans), trans 1,2,3,4,5,6-hexahydro-3-(3-methyl-2-butenyl)-6-ethyl-11-methyl-8-hydroxy-2,6-methano-3-benzazocine]
maximum degree of antagonism ([2]; at 0.1 mg/kg.): 22%
ED50 in D'Amour-Smith test for analgesia [6]: 0.94 mg/kg

CC[C@]12CCN(CC=C(C)C)[C@H](Cc3ccc(O)cc31)[C@H]2C (relative stereo) [7D (racemic trans), trans 1,2,3,4,5,6-hexahydro-3-(3-methyl-2-butenyl)-6-ethyl-11-methyl-8-hydroxy-2,6-methano-3-benzazocine]
maximum degree of antagonism ([2]; at 0.1 mg/kg.): 50%
ED50 ([6]; Rattus norvegicus): 1.4 mg/kg
